{"source": "patent US10894072B2", "about": "“Compositions and methods for treating fibromyalgia” (Quality IP Holdings, LLC, priority 2017, dated 2021)", "origin": "cited, not measured here", "key": {"[1]": {"tested_on": "fibromyalgia"}, "[2]": {"settings": "hGH-deficient adults, within months of treatment"}, "[3]": {"tested_on": "IGF-1 and IGF-BP3", "settings": "patients with fibromyalgia, 4 days treatment"}, "[4]": {"settings": "subcutaneous injection of 0.06 IU, hGH deficient subjects"}, "[5]": {"tested_on": "fibromyalgia", "remark": "listed apart in the source"}, "[6]": {"tested_on": "fibromyalgia", "remark": "listed apart in the source"}, "[7]": {"tested_on": "hGH", "settings": "for Increase in hGH: other amino acids"}}}
{"molecule": "hGH: human growth hormone, given by injection in cited studies", "values": [{"measurement": "Reduction in the mean number of tender points (pairs) compared to the control group", "setting": "[1]; end of one-year study, subcutaneous hGH added to standard therapy", "result": 60, "unit": "%"}, {"measurement": "Tolerability", "setting": "[1]; human, in vivo", "result": "well tolerated"}, {"measurement": "Lean body mass, skin thickness and muscle mass", "setting": "[2]", "result": "gains"}, {"measurement": "Plasma IGF-1 and IGF-BP3 levels", "setting": "[3]", "result": "increase"}, {"measurement": "Mean levels of hGH reached", "setting": "[4]", "result": 0.4, "unit": "ng/mL"}, {"measurement": "FIQ score and tender point score over the placebo group", "setting": "[5]; at nine months", "result": "significant improvement"}, {"measurement": "IGF-1 levels", "setting": "[5]; daily hGH injections", "result": "prompt and sustained increase"}, {"measurement": "Pain", "setting": "[6]; hGH added to standard treatment, sustained action over time", "result": "effective in reducing pain"}, {"measurement": "FIQ scores compared with placebo group", "setting": "[6]; low-dose hGH added to standard treatment", "result": "significantly improved"}]}
{"molecule": "N[C@@H](Cc1c[nH]cn1)C(=O)O", "note": "[histidine]", "values": [{"measurement": "Increase in hGH", "setting": "[7]", "result": "marked increases"}]}
{"molecule": "N=C(N)NCCC[C@H](N)C(=O)O", "note": "[arginine]", "values": [{"measurement": "Elevation of serum hGH levels", "setting": "[7]; 30 g, males", "result": 8.6, "unit": "fold"}, {"measurement": "Increase of hGH levels", "setting": "[7]; intravenous infusion of 183 mg/kg body weight, females", "result": "> 20", "unit": "fold"}]}
{"molecule": "NCCCC[C@H](N)C(=O)O", "note": "[lysine]", "values": [{"measurement": "Increase in hGH", "setting": "[7]", "result": "marked increases"}]}
{"molecule": "N[C@@H](Cc1ccccc1)C(=O)O", "note": "[phenylalanine]", "values": [{"measurement": "Increase in hGH", "setting": "[7]", "result": "marked increases"}]}
{"molecule": "NCCC[C@H](N)C(=O)O", "note": "[ornithine]", "values": [{"measurement": "Increase in hGH", "setting": "[7]", "result": "marked increases"}]}
{"molecule": "CSCC[C@H](N)C(=O)O", "note": "[methionine]", "values": [{"measurement": "Increase in hGH", "setting": "[7]", "result": "marked increases"}]}
